Results as given in the NIST ThermoML archive (doi:10.1021/acs.jced.6b00178).

What was measured:
[1] = 100 kPa, Liquid; for viscosity: Concentric cylinders viscometry; for mass density: Vibrating tube method
[2] = xn = mol fraction of the nth substance listed; details: 100 kPa, Liquid, x1 = 1; for viscosity: Concentric cylinders viscometry; for mass density: Vibrating tube method

CCCCn1cc[n+](C)c1.COP(=O)([O-])OC [1-butyl-3-methyl-1H-imidazolium dimethylphosphate]
[1]
Details | mass density [kg/m3] | viscosity [mPa·s]
283.15 K | 1168.4 | 2315.6
288.15 K | 1164.9 | 1454.6
293.15 K | 1161.4 | 943.97
298.15 K | 1157.9 | 641.71
303.15 K | 1154.3 | 446.92
308.15 K | 1150.9 | 319.33
313.15 K | 1147.6 | 232.1
318.15 K | 1144.3 | 174.7
323.15 K | 1141 | 133.37
328.15 K | 1137.8 | 103.62
333.15 K | 1134.6 | 81.97
338.15 K | 1131.4 | 65.62
343.15 K | 1128.3 | 53.39
348.15 K | 1125.1 | 44.01
353.15 K | 1122 | 37.08
358.15 K | 1118.9 | 30.94
363.15 K | 1115.7 | 26.33

CCCCn1cc[n+](C)c1.F[B-](F)(F)F [1-butyl-3-methylimidazolium tetrafluoroborate]
[1]
Details | mass density [kg/m3] | viscosity [mPa·s]
283.15 K | 1212.5 | 264.99
288.15 K | 1208.8 | 192.43
293.15 K | 1205.2 | 143.08
298.15 K | 1201.6 | 108.74
303.15 K | 1198 | 84.28
308.15 K | 1194.5 | 66.52
313.15 K | 1190.9 | 53.37
318.15 K | 1187.4 | 43.47
323.15 K | 1184 | 35.89
328.15 K | 1180.5 | 30.01
333.15 K | 1177 | 25.38
338.15 K | 1173.6 | 21.68
343.15 K | 1170.2 | 18.7
348.15 K | 1166.8 | 16.26
353.15 K | 1163.4 | 14.26
358.15 K | 1160.1 | 12.59
363.15 K | 1156.8 | 11.2

CCCC[n+]1ccn(C)c1.O=S(=O)([N-]S(=O)(=O)C(F)(F)F)C(F)(F)F + CCCCn1cc[n+](C)c1.N#CN=C=[N-]
[2]
Details | mass density [kg/m3] | viscosity [mPa·s]
283.15 K | 1451.8 | 106.77
288.15 K | 1446.9 | 82.16
293.15 K | 1442.1 | 64.53
298.15 K | 1437.2 | 51.6
303.15 K | 1432.4 | 41.93
308.15 K | 1427.6 | 34.59
313.15 K | 1422.8 | 28.91
318.15 K | 1418.1 | 24.46
323.15 K | 1413.4 | 20.91
328.15 K | 1408.7 | 18.05
333.15 K | 1404 | 15.72
338.15 K | 1399.3 | 13.8
343.15 K | 1394.7 | 12.2
348.15 K | 1390.1 | 10.86
353.15 K | 1385.5 | 9.72
358.15 K | 1381 | 8.754
363.15 K | 1376.4 | 7.926
